Like-named read-outs stand apart in the source and are kept apart here.
How the values were obtained:
[1] = system: HAP1 cells; conditions: increasing concentrations of FGF-2 up to 1 ng/mL, XTT
[2] = system: SARS-CoV-2 (strain USA-WA1/2020); type: in vivo, Golden Syrian hamsters; conditions: lungs on D6
[3] = system: human coronavirus strain 229E (HCoV-229E); type: cell-based; conditions: FGF-2 1 ng/mL to 0.003 ng/mL, XTT

## FGF-2: Recombinant human FGF-2 (SEQ ID NO. 1, 18 kDa low molecular weight isoform); Sigma-Aldrich F0291 in Example 1, PeproTech 100-18B in Example 2
[1]
  toxicity: without toxicity
[2]; 20 μg FGF-2 intravenous on D-1, D0, D1, D2
  reduction in viral load compared to vehicle-treated animals: 51%
[2]; 50 μg FGF-2 intravenous on D-1, D0, D1, D2
  reduction in viral load compared to vehicle-treated animals: 73%
[3]
  EC50 (dose-dependent enhancement of cell survival): 0.08 ng/mL

From US20240116996A1, “METHODS AND COMPOSITIONS FOR TREATING A CORONAVIRUS INFECTION” (Recovery Therapeutics, Inc., priority 2021, published 2024)
